Data taken from patent publication US6821761B2, “Sphingolipid ceramide N-deacylase, methods for producing sphingolipids and sphingolipid derivatives, and sphingolipid ceramide N-deacylase gene” (Takara Bio, Inc., priority 1994, dated 2004).

What was measured:
ceramidase in B16 cells = assay: Measurement of ceramidase activity in B16 cells with labeled ceramide substrates; type: biochemical; details: B16 cell suspension, 50 μg protein, 0.5% Triton X-100, 37° C. 3 or 6 hours; FIG. 16
Method: Measurement of ceramidase activity in B16 cells using radioisotope labeled ^14C ceramide (C12−^14C-Cer) and fluorescent sphingolipid derivative NBD ceramide (C12-NBD-Cer) as the substrate:
A cell suspension was prepared by suspending 6×10^6 of B16 cells in 200 μl of 10 mM phosphate buffer. The amount of the protein was determined using MicroBCA™ protein assay reagent (manufactured by Pierce).
Under acidic condition in 10 μl of 50 MM acetate buffer (pH 4.0) containing 10 μl of the cell suspension (diluted to a protein content of 50 μg), 200 pmol of C12-NBD-Cer obtained in Example 21 or 100 pmol of C12−^14C-Cer obtained using lauric acid instead of palmitic acid used in Example 20, as the substrate, and 0.5% Triton X-100. […]
Each of the samples was developed on thin layer chromatography (developing solvent, chloroform/methanol/25% liquid ammonia =90/20/0.5 by volume), and the released ^14C fatty acid was determined using BAS 1000 Imaging Analyzer (manufactured by Fuji Photo Film) to calculate the reaction ratio. Also, the released NBD fatty acid was determined using Chromatoscanner CS 9000 (manufactured by Shimadzu Corporation), and the reaction ratio was calculated.

[1] = tested on: Limulus polyphemus ceramidase; assay: Ceramidase activity of Limulus polyphemus serum / purified ceramidase on ceramide substrates; type: biochemical
Method: A 10 μl of serum obtained by centrifugation of Limulus polyphemus blood was allowed to undergo 18 hours of reaction at 37° C. with 10 μl of 50 mM acetate buffer (pH 5.0) containing 1 nmol of NBD ceramide prepared in Example 21 and 0.5% Triton X-100. After completion of the reaction, the reaction solution was developed on thin layer chromatography (developing solvent: chloroform/methanol/25% liquid ammonia=90/20/0.5 by volume) and detected under an ultraviolet ray lamp.
In order to confirm that the ceramidase activity found in the Limulus polyphemus serum is really a ceramidase-derived activity, the ceramidase was purified to find that it was an acidic ceramidase having an optimum pH of 4.5 and a molecular weight of about 205 kDa when measured by a gel filtration method.

Shewanella alga NS-589 = assay: Conversion of sphingomyelin into sphingosylphosphorylcholine by culture of Shewanella alga NS-589; type: cell-based; details: synthetic medium, sphingomyelin 0.1%, 30° C. shaking 2 days, TLC
Method: Shewanella alga NS-589 was inoculated into 200 ml of a synthetic medium (dipotassium hydrogenphosphate 0.05%, ammonium chloride 0.05%, sphingomyelin 0.1%, sodium taurodeoxycholate 0.1%, sodium chloride 2%, 2,6-O-dimethyl-β-cyclodextrin 0.1%; pH 7.4) and incubated therein at 30° C. under shaking for 2 days.
Then the cells were eliminated by centrifuging the culture medium to obtain the culture supernatant which was then analyzed by thin layer chromatography. […] This culture medium was added to a C18 reversed phase column [Preoperative C18 125A (manufactured by Millipore), packing: 30 g, column diameter: 30 mm, open column]. After desalting and washing with 300 ml of water, the column was eluted with 300 ml of methanol and 300 ml of chloroform/methanol=1/1 (by volume). Then the sphingosylphosphorylcholine was eluted into the methanol fraction. After removing the solvent in the sphingosylphosphorylcholine fraction with a rotary evaporator, the residue was added to a silica gel 60 column (manufactured by Merck) and fractionated with chloroform/methanol/water=5/4/1 (by volume). Further, the solvent in the sphingosylphosphorylcholine fraction thus obtained was removed with a rotary evaporator and the residue was freeze-dried. Thus 47.6 mg of purified sphingosylphosphorylcholine could be obtained.

crude SCDase = assay: Substrate specificity of crude SCDase (culture supernatant) from Shewanella alga NS-589; type: biochemical; details: SCDase produced by Shewanella alga NS-589
Excerpt: Acting on acidic glycolipids (GM1, GM2, GD1a, GD1b, sialosyl paragloboside, etc.), neutral glycolipids (lactosyl ceramide, Gb4, Gb5, etc.), sulfated glycolipids (sulfatide, etc.) and sphingomyelin which is a sphingophospholipid, thus forming the corresponding lysosphingolipid and fatty acid in each case.
The substrate specificity was examined as follows. Shewanella alga NS-589 was inoculated into a synthetic medium (dipotassium hydrogenphosphate 0.05%, ammonium chloride 0.05%, sphingomyelin 0.1%, sodium taurodeoxycholate 0.1%, sodium chloride 2%, 2,6-O-dimethyl-β-cyclodextrin 0.1%; pH 7.4). Two days after shaking cultivation at 30° C., the strain was removed to obtain a supernatant by centrifuge. A 50 mM acetate buffer ([…]; pH 6.0) containing 3 μl of the supernatant and 1.6% Triton X-100 was allowed to react with 5 μl of 1.2 mM of each of sphingolipids shown in Table 2 at 37° C. for 16 hours, and then the resulting mixture was analyzed with a thin layer chromatography.
The digestion ratios of various substrates by a crude SCDase obtained from Shewanella alga NS-589.

SCDase = assay: Substrate specificity (hydrolysis) of purified SCDase from Pseudomonas sp. TK-4; type: biochemical; details: 10 nmol sphingolipid, 2 milliunits enzyme, 37° C. 16 h, 20 mM sodium acetate buffer pH 5.0, 0.8% Triton X-100, TLC
Method: The enzyme activity of the SCDase is assayed in the following manner. To 10 μl of a substrate solution [50 mM acetate buffer solution (pH 6.0) containing 2 mM of asialo GM1 and 0.6% (w/v) of Triton X-100] is added 10 μl of an enzyme solution. After reacting at 37° C. for 30 minutes, the enzyme reaction is ceased by heating the mixture to 100° C. for 3 minutes. Then the reaction mixture is concentrated to dryness with a centrifugal concentrator. Then the obtained concentrate is dissolved in 10 μl of 50% methanol and placed on a TLC plate (silica gel 60; manufactured by Merck & Co., Inc.). After developing with chloroform/methanol/0.02% aqueous solution of CaCl2 (5/4/1 by volume), the sphingolipid is subjected to color development by the orcinol-sulfuric acid method. […] This spot is determined by using a TLC chromatoscanner (Shimadzu CS-9000, manufactured by Shimadzu Corporation) at a wavelength of 540 nm.
Sphingolipids (10 nmol each) were incubated at 37° C. for 16 h with 2 milliunits of the enzyme in 20 μl of 20 mM sodium acetate buffer, pH 5.0, containing 0.8% Triton X-100. The extent of hydrolysis was examined by TLC and calculated.

[2] = tested on: SCDase derived from the genus Pseudomonas; assay: Fatty acid exchange reaction on various acceptors by SCDase; type: biochemical; details: 1 nmol [1-14C] stearic acid, 1 nmol sphingolipid, 30 μU SCDase, acetate buffer pH 6.0, 0.8% Triton X-100, overnight 37° C., galactosyl ceramide = 100
Method: A 10 μl portion of 50 mM acetate buffer (pH 6.0) containing 1 nmol [1−^14C] stearic acid, 1 nmol sphingolipid, 0.8% Triton X-100 and 30 μU SCDase derived from the genus Pseudomonas was allowed to react overnight at 37° C.
The thus obtained reaction solution was developed on thin layer chromatography and exposed to an imaging plate to carry out determination of the reaction product by BAS 1000 Imaging Analyzer (manufactured by Fuji Photo Film).

Which results are given for `CCCCCCCCCCCCC/C=C/[C@@H](O)[C@H](CO)NC(=O)CCCCCCCCCCCNc1ccc([N+](=O)[O-])c2nonc12` [NBD ceramide]?
Action of acidic ceramidase in B16 cells on substrate (ceramidase in B16 cells): hardly; Action of alkaline ceramidase in B16 cells on substrate (ceramidase in B16 cells): acts well; Hydrolysis of substrate by Limulus polyphemus serum (ceramidase activity) ([1]; 1 nmol substrate, 10 μl serum, acetate buffer pH 5.0, 0.5% Triton X-100, 18 hours 37° C., TLC under UV): a newly formed NBD aminododecanoic acid was detected

Which “Hydrolysis by purified Limulus polyphemus ceramidase (substrate preference)” value ([1]; purified ceramidase) does the source give for `CCCCCCCCCCCCC/C=C/[C@@H](O)[C@H](CO)NC(=O)CCCCCCCCCCCCCCCCC` [N-stearoylsphingosine (C18:0, d18:1), N-stearoylsphingosine] here?
The value was “most efficiently”.

Which results are given for Sphingomyelin?
Sphingomyelin converted into sphingosylphosphorylcholine (Shewanella alga NS-589): 80%; Substrate specificity: acting on the substrate, forming the corresponding lysosphingolipid and fatty acid (crude SCDase): Acting on; Digestion ratio (%) (SCDase): 28%; Relative activity (%) [2]: 2.9%
